Marks after values point to notes of the source that are not given here.
Key:
[1] = tested on: fibroblasts derived from a human; test: Promoting collagen production in fibroblasts (3H-proline incorporation into collagenase-sensitive protein); format: cell-based; conditions: control = 100%
Procedure: The experimental protocol in detail is as follows.
Human-derived fibroblasts were transferred to a 24 well plate and cultured in a medium containing 10% fetal bovine serum (FBS) for 24 hours, followed by washing twice with phosphate buffered saline. […] After the incubation was terminated, cells from each group were harvested and two fractions of each culture were prepared. One fraction from each culture was treated with collagenase. To all fractions was added trichloroacetic acid to precipitate proteins. The amount of radioactivity incorporated into collagenase-sensitive protein was measured and compared with that of the other fraction which was not treated with collagenase. The difference in radioactivity was attributed to the promoting effect of the compound.

[2] = tested on: hairless mice; test: Alleviating photo-induced wrinkles in hairless mice; format: in vivo; conditions: twice a day for 6 weeks, 10 per group
Procedure: Mice were placed into 21 experimental groups and 3 control groups, with 10 rats per group. […] The experimental protocol is as follows. Hairless mice were radiated using a simulated sunlight at a dose of 2 MED (double Minimal Erythema Dose) 3 days a week for 10 weeks, thereby generating wrinkles. Then, respective active ingredients or the solvent only were applied at a volume of 100 μl each, twice a day for 6 weeks. Degrees of wrinkle reduction were determined. The determination was performed by visually observing the compound-applied region with naked eyes, and the region was photographed. The degrees of alleviation of wrinkles in the compound-treatment groups (experimental groups) were compared with those of the control group and were determined as one of 4 stages, that is, none (Score 0), slight (Score 1), moderate (Score 2) and high (Score 3), and the corresponding mice were counted.

[3] = tested on: hairless mice; test: Inhibiting the generation of wrinkles in hairless mice (simulated sunlight); format: in vivo; conditions: 10 per group
Procedure: 6-week hairless mice were placed into 21 experimental groups and 3 control groups, with 10 rats per group. […] The experimental protocol in detail is as follows. Hairless mice were radiated using simulated sunlight at a dose of 2 MED (double Minimal Erythema Dose) 3 days a week for […], thereby generating wrinkles. Respective active ingredients or the solvent only were applied twice every day (specifically, on radiation days, the application was performed at 30 min before and after the radiation), at a volume of 100 μl each for 10 weeks from the first radiation day. Degrees of inhibition of generated wrinkles were determined. The determination was performed by visual observation with naked eyes and photography.

[4] = tested on: rat skin; test: Promotion of collagen production in rat skin (hydroxyproline in implanted PVA sponge); format: in vivo, SD rats; conditions: 200 μl every day for 10 days, control = 100%
Procedure: In brief, 5-week male SD rats were grouped with 5 rats per group. The rats were each incised 1 cm in the center of their abdomens and PVA sponges (Unipoint ind.) were inserted therein. After suturing, as for experimental groups, respective active ingredients to be examined were applied to the PVA sponge-embeded regions i n a volume o f 200 μl every day for 10 days. Upon autopsy, the PVA sponge was removed to quantify hydroxyproline. The PVA sponge was added with 4 ml of 6 N HCl, hydrolized at 130° C. for 3 hours and was subjected to complete drying. 50 μl of methanol was added and the solution was incubated at 110° C. until HCl was removed. 1.2 ml of 50% isopropanol was added to dissolve the remaining precipitate. 200 μl of chloramine-T (sodium p-toluensulfochloramide trihydrate) solution was added while stirring, and let stand for 10 min. After adding 1.2 ml of Ehrlich reagent and mixing, the solution was incubated at 50° C. for 90 min. The resulting solution was cooled to room temperature and absorbance at 558 nm was measured. Hydroxyproline standard solutions were prepared by dissolving 1 mg hydroxyproline in 1 ml HCl and diluting it to concentrations of 0, 0.2, 0.4, 0.8, 1 mg each relative to 25 μl of 6 N HCl. The standard solutions were hydrolyzed at 130° C. for 3 hours. The quantified value of hydroxyproline, relative to hydroxyproline value (100%) of the control group which was applied with solvent only, are shown in Table 2.

Compound | Effect of promoting collagen production in fibroblasts (rate of collagen production) ([1]; 10^-5 M) [%] | Effect of promoting collagen production in fibroblasts (rate of collagen production) ([1]; 10^-6 M) [%] | Effect of promoting collagen production in fibroblasts (rate of collagen production) ([1]; 10^-7 M) [%] | Effect of promoting collagen production in fibroblasts (rate of collagen production) ([1]; 10^-8 M) | Reduction of wrinkles, Score 0 (none) ([2]; 10^-3 M) | Reduction of wrinkles, Score 1 (slight) ([2]; 10^-3 M) | Reduction of wrinkles, Score 2 (moderate) ([2]; 10^-3 M) | Reduction of wrinkles, Score 3 (high) ([2]; 10^-3 M) | Reduction of wrinkles, Score 0 (none) ([2]; 10^-5 M) | Reduction of wrinkles, Score 1 (slight) ([2]; 10^-5 M) | Reduction of wrinkles, Score 2 (moderate) ([2]; 10^-5 M) | Reduction of wrinkles, Score 3 (high) ([2]; 10^-5 M) | Reduction of wrinkles, Score 0 (none) ([2]; 10^-8 M) | Reduction of wrinkles, Score 1 (slight) ([2]; 10^-8 M) | Reduction of wrinkles, Score 2 (moderate) ([2]; 10^-8 M) | Reduction of wrinkles, Score 3 (high) ([2]; 10^-8 M) | Inhibition of wrinkles, Score 0 (none) ([3]; 10^-3 M) | Inhibition of wrinkles, Score 1 (slight) ([3]; 10^-3 M) | Inhibition of wrinkles, Score 2 (moderate) ([3]; 10^-3 M) | Inhibition of wrinkles, Score 3 (high) ([3]; 10^-3 M) | further results
O=C1NC(=O)C(c2ccccc2)(c2ccccc2)N1 [Phenytoin] | 381.54 | 360.65 | 298.35 | 215.28* % | 0 number of mice | 0 number of mice | 3 number of mice | 7 number of mice | 0 number of mice | 1 number of mice | 3 number of mice | 6 number of mice | 0 number of mice | 1 number of mice | 2 number of mice | 7 number of mice | 0 number of mice | 0 number of mice | 3 number of mice | 7 number of mice | Inhibition of wrinkles, Score 0 (none) ([3]; 10^-5 M): 0 number of mice; Inhibition of wrinkles, Score 1 (slight) ([3]; 10^-5 M): 0 number of mice; Inhibition of wrinkles, Score 2 (moderate) ([3]; 10^-5 M): 3 number of mice; Inhibition of wrinkles, Score 3 (high) ([3]; 10^-5 M): 7 number of mice; Inhibition of wrinkles, Score 0 (none) ([3]; 10^-8 M): 0 number of mice; Inhibition of wrinkles, Score 1 (slight) ([3]; 10^-8 M): 0 number of mice; Inhibition of wrinkles, Score 2 (moderate) ([3]; 10^-8 M): 2 number of mice; Inhibition of wrinkles, Score 3 (high) ([3]; 10^-8 M): 8 number of mice; Effect of promoting collagen production in animal skin (hydroxyproline value vs control) ([4]; 10^-5 M): 182.47%; Effect of promoting collagen production in animal skin (hydroxyproline value vs control) ([4]; 10^-6 M): 167.41%; Effect of promoting collagen production in animal skin (hydroxyproline value vs control) ([4]; 10^-7 M): 143.51%; Effect of promoting collagen production in animal skin (hydroxyproline value vs control) ([4]; 10^-8 M): 132.58* %
CCOC(=O)C1=C(COCCN)NC(C)=C(C(=O)OC)C1c1ccccc1Cl (stereo not shown) [Amoldipine] | 355.26 | 330.42 | 280.07 | 182.42% | 0 number of mice | 1 number of mice | 3 number of mice | 6 number of mice | 0 number of mice | 2 number of mice | 2 number of mice | 6 number of mice | 0 number of mice | 1 number of mice | 1 number of mice | 8 number of mice | 0 number of mice | 0 number of mice | 2 number of mice | 8 number of mice | Inhibition of wrinkles, Score 0 (none) ([3]; 10^-5 M): 0 number of mice; Inhibition of wrinkles, Score 1 (slight) ([3]; 10^-5 M): 1 number of mice; Inhibition of wrinkles, Score 2 (moderate) ([3]; 10^-5 M): 3 number of mice; Inhibition of wrinkles, Score 3 (high) ([3]; 10^-5 M): 6 number of mice; Inhibition of wrinkles, Score 0 (none) ([3]; 10^-8 M): 0 number of mice; Inhibition of wrinkles, Score 1 (slight) ([3]; 10^-8 M): 1 number of mice; Inhibition of wrinkles, Score 2 (moderate) ([3]; 10^-8 M): 1 number of mice; Inhibition of wrinkles, Score 3 (high) ([3]; 10^-8 M): 8 number of mice; Effect of promoting collagen production in animal skin (hydroxyproline value vs control) ([4]; 10^-5 M): 181.12%; Effect of promoting collagen production in animal skin (hydroxyproline value vs control) ([4]; 10^-6 M): 163.84%; Effect of promoting collagen production in animal skin (hydroxyproline value vs control) ([4]; 10^-7 M): 149.65%; Effect of promoting collagen production in animal skin (hydroxyproline value vs control) ([4]; 10^-8 M): 132.50%

Reference: patent US20040052750A1, “Compositions for prevention and alleviation of skin wrinkles” (priority 2000, published 2004)
